Test results published in publication PMC11022737, “Targeting GRP75 with a Chlorpromazine Derivative Inhibits Endometrial Cancer Progression Through GRP75–IP3R‐Ca^2+‐AMPK Axis” (Advanced Science, 2024).
Like-named read-outs stand apart in the source and are kept apart here.

Columns and labels:
[1] = plasma protein binding using equilibrium dialysis; assay type: in vitro ADME
Description: Plasma protein binding using equilibrium dialysis: A 96-well equilibrium dialysis device and HTD 96 a/b regenerated cellulose membrane strips with a molecular mass cutoff of 12–14 kDa were obtained from HTDialysis LLC (Gales Ferry, CT). The dialysis device was assembled following the manufacturer's instructions.

[2] = test system: endometrial cancer organoid (ECO); assay: anti-proliferation in endometrial cancer organoid (ECO) model; assay type: cell-based; details: Homo sapiens, n = 3, mean ± SD
Description: ECO cultures were established as described previously.^[ [50] ^] Biopsies were cut into small pieces and extensively rinsed in phosphate‐buffered saline (PBS; HyClone, SH30256.01) containing 2% penicillin–streptomycin solution (Thermo Fisher Scientific, 10 010 023). Tissues were incubated in TrypLE (1x; Thermo Fisher Scientific, 12 604 013) supplemented with rock inhibitor for 20 min and then mechanically sheared to obtain a cell suspension. Digestion was stopped by dilution with equal amounts of DMEM/F12 and centrifuged at 1300 rpm for 5 min at 4 °C. The pellet was resuspended in Matrigel (Corning, 356 231, Corning, NY, USA), and 30 µL droplets were deposited in pre‐warmed 24‐well plates. ECOs were cultured as described previously.^[ [51] ^] For passages (performed every 10–20 d), organoids were recovered via liquefaction of the Matrigel drops with ice‐cold DMEM/F12 to ensure maximum organoid collection. Subsequently, ECOs were dissociated by repeated pipetting using TrypLE (in DMEM/F12 containing rock inhibitor), and the mixture was centrifuged at 1300 rpm. […]
EC cells were seeded into 96‐well plates at a concentration of 8 × 10^3 cells well^−1 in a 100 µL volume and cultured overnight. […] Absorbance at 450 nm was measured using a microplate reader (BioTek Synergy H1, Agilent Technologies, Santa Clara, CA, USA).

[3] = test system: ISK cells xenograft tumors; assay: ISK tumor xenograft in nude mice; assay type: in vivo, BALB/c nude mice
Text: All animal experiments were approved by the Committee on the Ethics of Animal Experiments of Shanghai Jiao Tong University, China (GKLW 2018–40). Female BALB/c nude mice (at least 5 weeks old) were procured from a commercial supplier (JieSiJie, Shanghai, China) through the Department of Laboratory Animal Science at Shanghai Jiaotong University School of Medicine. Mice were maintained under standard conditions and cared for according to the institutional guidelines for animal care. EC cells resuspended in PBS were mixed with Matrigel (BD Biosciences) in equal volume and then subcutaneously injected into the armpits of the nude mice. […] The dose of the compound injected into the mice was slightly adjusted following the methodology described in the previous study.^[ [7] ^] Every 2 d, the length (L) and width (W) of each tumor were measured twice using an external Vernier caliper for automatic reading, where the larger of the two measurements was defined as L and the smaller as W. The tumor volume was calculated using Equation 1, as follows: (1) V=0.52×L×W^2
HSP‐70 ELISA kits were purchased from YuBo Biology. […] Equal amounts of diluted protein supernatant were used, and the assay was conducted according to the manufacturer's instructions. The obtained absorbance values for protein levels were then transferred to in‐house data analysis software developed using the Windows Microsoft Excel platform to calculate the standard deviations for each group, and the average absorbance for each group was compared to the standardized controls. Each test group for each of the proteins of interest consisted of eight replicates. Assay‐specific controls were run with each plate to ensure optimal accuracy of the results.

[4] = pharmacokinetic assay in SD rats (PO, IP, IV); assay type: in vivo; details: male, rat, plasma
Description: Three male SD rats (208–259 g, 6–8 weeks) per group were purchased from JH Laboratory Animal Co. LTD. All rats were raised under controlled temperature and humidity conditions and had free access to food and water. […] Each rat was injected with a combination solution at doses of 2, 10, and 5 mg kg^−1 for IV, PO, and IP, respectively. Blood samples collected in anticoagulant (K2EDTA)‐containing tubes at 0.25, 0.5, 1, 2, 4, 8, and 24 h after injection were centrifuged at 2000 × g at 4 °C for 5 min to obtain plasma. LC‐MS/MS analysis of samples was carried out using an ACQUITY UPLC HSS T3 1.8 µm column. The mobile phase was a mixture of phase A (0.1% formic acid in water) and phase B (0.1% formic acid in acetonitrile), which ran in gradient mode at a flow rate of 0.6 mL min^−1 at 60 °C. Mass spectra were obtained on an API6500 triple quadrupole equipped with an ESI source. Glipizide was used as an internal standard. The plasma concentrations of the compounds were analyzed, and the pharmacokinetic parameters were calculated via WinNonlin.

[5] = test system: AMPK signaling in ISK and KLE cells; assay: Western blotting of p-AMPK and BIM; assay type: cell-based, human
Text: EC cells were lysed in RIPA buffer (Epizyme, PC102, Ipsen Biopharmaceuticals, Cambridge, MA, USA) supplemented with a protease inhibitor cocktail. Samples were then quantified using a BCA kit (Epizyme, ZJ101), resolved by SDS‐PAGE, and blotted with primary antibodies and corresponding horseradish peroxidase‐conjugated secondary antibodies. The primary antibodies used included anti‐AMPK (1:1000 dilution), anti‐p‐AMPK (1:1000 dilution), anti‐BIM (1:1000 dilution), and anti‐GRP75 (1:1000 dilution) from Cell Signaling Technology (Beverly, MA, USA) and anti‐GAPDH (1:1500 dilution) from Yeason.

[6] = set-up: method as in PMID 35868106; details: cited from earlier work
[7] = test system: ISK and KLE cells; assay: Seahorse glycolytic rate assay (ECAR); assay type: cell-based, human; details: 10 µM
Description: The ECAR and OCR were measured using the Seahorse XF Glycolysis Stress Test Kit or Seahorse XF Cell Mito Stress Test Kit on the Seahorse XF 96 Extracellular Flux Analyzer (Seahorse Bioscience, North Billerica, MA, USA), according to the manufacturer's introductions. […] Glucose, oligomycin, and 2‐deoxy‐glucose were used to determine the ECAR values, whereas oligomycin, carbonyl cyanide‐p‐trifluoromethoxyphenylhydrazone, and rotenone were used to measure the OCR.

[8] = test system: EC cells (ISK); assay: MAM integrity and mitochondrial Ca2+ (TEM, confocal imaging) in EC cells; assay type: cell-based, human
Description: EC cells were fixed with 2.5% glutaraldehyde in sodium cacodylate buffer (0.1 mol L^−1, pH 7.2) at 4 °C overnight and post‐fixed for 1 h in 1% osmium tetroxide. Samples were stained for 1 h with 1% uranyl acetate in water before dehydration and embedding in the TAAB resin. Images were obtained using a transmission electron microscope.
Co‐localization analysis of the ER and mitochondria was conducted as previously described.^[ [64], [65] ^] EC cells grown on glass slides were loaded with Mito‐Tracker Red (0.3 µmol L^−1) and ER‐Tracker Green (1 µmol L^−1) at 37 °C for 30 min. Images were captured using a confocal microscope equipped with a 100× oil immersion objective (excitation at 488 and 594 nm, emission at 505–530 and >560 nm, respectively). Co‐localization of the ER and mitochondria was quantified as Manders’ co‐localization coefficient (MCC) using ImageJ software with a JACoP plugin. MCCs were calculated according to the fraction of mitochondrial pixels in contact with the ER (with a higher value representing more co‐localization). The co‐localization of Rhod‐2 (red fluorescent signal, 4 µmol L^−1) with Mito‐Tracker Green (0.3 µmol L^−1) in the live cells was performed as described above.

[9] = test system: ISK and KLE cells; assay: ATP production and α-KGDH activity in EC cells; assay type: cell-based, human; details: 10 µmol L−1
Description: The intracellular ATP levels were then checked using an enhanced ATP kit (Beyotime Biotechnology, Jiangsu, China), in accordance with the manufacturer's instructions. The entire cell population, including any floating cells, was collected, lysed, and boiled to release the ATP for the assay, and the results were compared with those from the DMSO group (%).
Intracellular α‐KGDH activity levels were measured using an α‐KGDH activity assay kit (Solarbio, Beijing, China) according to the manufacturer's instructions. Briefly, the entire cell population, including any floating cells, was collected, milled, and the absorbance measured. The α‐KGDH activity was then determined using Equation 2 as follows: (2) α−KGDH=U/10^4cell=4.962×ΔAdetermination−ΔAblank

[10] = biological target: T1, GRP75 (Homo sapiens, UniProt P38646); assay: microscale thermophoresis (MST) binding assay; details: His-tagged recombinant GRP75 50 nmol L−1, n = 3; read-out: K d, binding to GRP75 (MST)
T1 construct: purchased Zoonbio Biotechnology Co., Ltd. (Nanjing, China); host or cells: E. coli
T1 sequence (P38646 47-679): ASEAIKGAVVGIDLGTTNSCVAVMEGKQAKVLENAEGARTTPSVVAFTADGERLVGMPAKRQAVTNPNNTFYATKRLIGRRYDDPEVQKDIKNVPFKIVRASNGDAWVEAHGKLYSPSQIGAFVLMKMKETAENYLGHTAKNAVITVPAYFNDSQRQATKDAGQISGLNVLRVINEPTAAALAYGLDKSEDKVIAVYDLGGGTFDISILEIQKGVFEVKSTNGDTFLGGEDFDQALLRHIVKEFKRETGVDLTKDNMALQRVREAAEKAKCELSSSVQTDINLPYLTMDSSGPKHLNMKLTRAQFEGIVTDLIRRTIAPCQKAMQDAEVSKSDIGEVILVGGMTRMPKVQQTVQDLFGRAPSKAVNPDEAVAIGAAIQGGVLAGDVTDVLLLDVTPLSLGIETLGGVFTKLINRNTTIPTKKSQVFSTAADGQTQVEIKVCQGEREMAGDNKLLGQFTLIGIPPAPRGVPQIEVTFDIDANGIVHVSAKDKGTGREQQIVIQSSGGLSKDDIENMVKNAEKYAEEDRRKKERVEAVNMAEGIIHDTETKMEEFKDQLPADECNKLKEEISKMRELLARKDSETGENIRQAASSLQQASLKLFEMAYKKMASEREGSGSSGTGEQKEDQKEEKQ
Description: Purified GRP75 protein was obtained by Zoonbio Biotechnology Co., Ltd. (Nanjing, China). Recombinant His‐tagged GRP75 protein was labeled with RED‐tris‐NTA second generation dye solution (MO‐L018, NanoTemper Technologies), according to the manufacturer's instructions. […] All samples were diluted in 1× PBST and contained the same amount of DMSO. The K d was determined in MO. Control using the K d fit.

[11] = water solubility; assay type: physicochemical
[12] = IP 5 mg kg−1, read-out: AUC 0–24 h
[13] = IP 5 mg kg−1, read-out: AUC 24 h−∞
[14] = IV 2 mg kg−1, read-out: AUC 0–24 h
[15] = IV 2 mg kg−1, read-out: AUC 24 h−∞
[16] = PO 10 mg kg−1, read-out: AUC 0–24 h
[17] = PO 10 mg kg−1, read-out: F (oral bioavailability)

IC50 [2] [µM]	Structure (SMILES)	Cmax ([4]; IP 5 mg kg−1) [ng/mL]	Tmax ([4]; IP 5 mg kg−1) [h]	half-life ([4]; IP 5 mg kg−1) [h]	AUC(0-t) [4, 12] [ng·h/mL]	AUC(0-inf) [4, 13] [ng·h/mL]	bioavailability ([4]; IP 5 mg kg−1, read-out: F) [%]	clearance ([4]; IV 2 mg kg−1) [mL/min/kg]	half-life ([4]; IV 2 mg kg−1) [h]	AUC(0-t) [4, 14] [ng·h/mL]	AUC(0-inf) [4, 15] [ng·h/mL]	Cmax ([4]; PO 10 mg kg−1) [ng/mL]	Tmax ([4]; PO 10 mg kg−1) [h]	AUC(0-t) [4, 16] [ng·h/mL]	bioavailability [4, 17] [%]	extrapyramidal side effects [6]	other results
58.2 ± 7.62	CN(C)CCCN1c2ccccc2Sc2ccc(Cl)cc21 [CPZ, chlorpromazine]																% Bound (plasma protein binding rate) [1]: 98.44%; fraction unbound [1]: 0.0156
	CN1CCN(CCCCCN2c3cc(Cl)ccc3Sc3cccnc32)CC1 [JX57]	3.04 ± 1.12	0.33 ± 0.14	3.06 ± 1.03	9.01 ± 7.03	14.2 ± 8.39	44.4 ± 34.6	2650	2.72 ± 0.9	8.12 ± 4.13	13.9 ± 5.43	11.3 ± 4.57	0.41 ± 0.14	41.5 ± 15.7	94.3 ± 46.9	minor	expression of GRP75 in xenograft tumors with ISK cells (ELISA) ([3]; 5 mg kg−1, n = 8): reduced; effects on GRP75-knockdown ISK tumor versus vehicle group ([3]; GRP75-deficient ISK cells in nude mice, 5 mg kg−1 i.p. daily, n = 6): not significantly different; anticancer effect in vivo on addition of the AMPK inhibitor compound C ([3]; JX57 5 mg kg−1 plus compound C 0.2 mg kg−1, n = 6): partially abolished; %Unbound [1]: 0.84%; half-life ([4]; PO 10 mg kg−1): 4.03 ± 0.88 h; AUC(0-inf) ([4]; PO 10 mg kg−1, read-out: AUC 24 h−∞): 55.7 ± 24.3 ng·h/mL; p‐AMPK expression and BIM expression [5]: increased; glycolysis rate and glycolytic capacity (ECAR) [7]: markedly reduced; ER–mitochondrial distance (TEM) ([8]; EC cells (ISK), 10 µmol L−1): significantly expanded; [Ca2+]m levels ([8]; EC cells, 10 µmol L−1, confocal Rhod-2/Mito-Tracker): decreased; cellular ATP levels [9]: reduced; α‐ketoglutarate activity [9]: reduced
6.39 ± 0.87	Clc1ccc2c(c1)N(CCCCCN1CCC3(CCCCC3)CC1)c1ncccc1S2 [JX66]	10 ± 1.49	1.67 ± 0.57	10.1 ± 1.38	140 ± 35.3	170 ± 37.4	42.5 ± 13	265	5.1 ± 1.69	144 ± 75.9	153 ± 75.9	3.8 ± 1.29	5.5 ± 4.33	16 ± 2.65	2.23 ± 0.37	minor	Kd [10]: 37.6 µM; water solubility [11]: poor
